Measured values as given in patent US12698264B2, “Synthesis of tigilanol tiglate and analogs thereof” (THE BOARD OF TRUSTEES OF THE LELAND STANFORD JUNIOR …, priority 2021, dated 2026).
“Also recorded” adds a separate entry of the source.

Assays:
[1] = molecular target: T1, PKC-βI (Homo sapiens, UniProt P05771); format: binding
T1 construct: purchased Invitrogen
Description: (§1) The protein kinase C (PKC) affinity of EBC-46 and EBC-46 analogs was performed via competition with ^3H-phorbol-12,13-dibutyrate (^3H-PDBu). This procedure entailed a glass-fiber filtration method to determine bound radioligand.
(§2) Preparation of PKC binding assay buffer: To a 50 mL polypropylene tube was added Tris-HCl (pH 7.4, 1 M, 1 mL), KCl (1 M, 2 mL), CaCl2 (0.1 M, 30 μL), and bovine serum albumin (BSA, 40 mg, Sigma-Aldrich). This mixture was diluted to 20 mL with deionized H2O and mixed gently. The buffer was stored on ice until use.
(§3) Preparation of phosphatidylserine (PS) vesicles: For every two assays, 3.5 mg phosphatidylserine (Avanti Polar Lipids, porcine, 25 mg/mL CHCl3 solution) was concentrated by removing chloroform under a stream of nitrogen followed by reduced pressure. […]
(§4) For each data point, 280 μL of “Master Mix” Solution and 20 μL of analog compound at a specified concentration were added to a polypropylene tube. […] Maximal ^3H-PDBu binding was assessed in triplicate by substitution of the analog compound with 20 μL DMSO. […] Scintillation vials were filled with Bio-Safe II scintillation fluid (5 mL) and measured for radioactivity using a Beckman LS 6000SC scintillation counter. […] The Kd of ^3H-PDBu for PKC isoforms was measured separately via saturation binding experiments under identical conditions.

[2] = system: mast cell tumors; details: canines, cited from earlier work
[3] = system: PKC-βI-GFP; format: cell-based, Chinese hamster
Description: 2 mL of fresh F-12−/− was then added to each well, taking care not to disturb adherent cells. […] 250 μL of the Lipofectamine 2000 suspension was added to the DNA suspension and the solution incubated for 30 minutes at RT. 500 μL of the Lipofectamine/DNA suspension was added to the respective wells of the 6-well plate. The cells were then incubated at 37° C.

[4] = Incubation in neutral aqueous media; format: physicochemical; details: upon incubation in neutral aqueous media
[5] = system: protein kinase C (PKC); format: binding, human
Description: as §1, §2, §3, §4

[6] = system: chikungunya virus (CHKV); details: cited from earlier work
[7] = molecular target: PKC δ (Homo sapiens, UniProt Q05655); test: PKC binding of trigowiin A; details: type of constant not given; read-out: binds with PKC δ
Chain of PKC δ (Q05655 whole entry): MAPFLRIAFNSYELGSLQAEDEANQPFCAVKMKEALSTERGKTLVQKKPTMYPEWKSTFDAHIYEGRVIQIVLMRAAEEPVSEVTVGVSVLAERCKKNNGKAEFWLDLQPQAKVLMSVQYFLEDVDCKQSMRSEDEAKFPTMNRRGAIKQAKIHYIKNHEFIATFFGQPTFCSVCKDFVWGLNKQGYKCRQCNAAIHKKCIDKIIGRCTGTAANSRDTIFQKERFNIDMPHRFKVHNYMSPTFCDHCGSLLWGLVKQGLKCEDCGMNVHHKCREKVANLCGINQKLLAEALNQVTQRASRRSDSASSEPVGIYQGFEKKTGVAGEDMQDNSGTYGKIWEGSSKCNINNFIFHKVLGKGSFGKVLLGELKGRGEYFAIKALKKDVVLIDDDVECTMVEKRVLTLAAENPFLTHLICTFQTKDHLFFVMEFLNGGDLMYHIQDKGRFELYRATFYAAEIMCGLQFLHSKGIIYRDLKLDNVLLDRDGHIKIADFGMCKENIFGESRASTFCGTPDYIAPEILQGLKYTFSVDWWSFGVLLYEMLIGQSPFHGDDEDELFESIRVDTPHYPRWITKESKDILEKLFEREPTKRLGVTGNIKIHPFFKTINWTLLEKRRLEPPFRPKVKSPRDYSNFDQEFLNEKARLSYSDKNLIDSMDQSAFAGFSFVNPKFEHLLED

[8] = molecular target: PKC β (Homo sapiens, UniProt P05771); test: PKC binding of trigowiin A; details: type of constant not given; read-out: binds with PKC β
Chain of PKC β (P05771 whole entry, species assumed): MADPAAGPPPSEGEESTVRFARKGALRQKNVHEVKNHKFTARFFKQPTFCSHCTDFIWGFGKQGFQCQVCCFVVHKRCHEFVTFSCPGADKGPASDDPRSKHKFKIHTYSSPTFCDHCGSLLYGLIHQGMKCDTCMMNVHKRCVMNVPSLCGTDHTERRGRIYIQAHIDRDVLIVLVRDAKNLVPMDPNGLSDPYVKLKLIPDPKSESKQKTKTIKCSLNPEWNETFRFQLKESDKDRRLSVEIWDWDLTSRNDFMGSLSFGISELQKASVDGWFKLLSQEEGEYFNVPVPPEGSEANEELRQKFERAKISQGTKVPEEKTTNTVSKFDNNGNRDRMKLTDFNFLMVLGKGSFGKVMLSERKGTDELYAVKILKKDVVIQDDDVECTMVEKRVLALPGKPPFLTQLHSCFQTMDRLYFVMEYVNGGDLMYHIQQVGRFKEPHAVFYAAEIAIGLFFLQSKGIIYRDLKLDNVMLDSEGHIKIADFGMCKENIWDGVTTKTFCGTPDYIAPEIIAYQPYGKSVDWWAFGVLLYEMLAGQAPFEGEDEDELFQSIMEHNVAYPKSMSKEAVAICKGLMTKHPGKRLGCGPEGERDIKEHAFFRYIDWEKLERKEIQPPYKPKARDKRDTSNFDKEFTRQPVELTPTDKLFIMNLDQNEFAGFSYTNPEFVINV

T1 sequence (P05771 whole entry): as the sequence (P05771 whole entry, species assumed) above

Question: Which “PKC isoform binding selectivity” value [1] does the source give for `C/C=C(\C)C(=O)O[C@@H]1[C@@H](C)[C@@]2(O)C([C@@H]3C(C)(C)[C@]13OC(=O)[C@@H](C)CC)[C@@H]1O[C@]1(CO)[C@@H](O)[C@]1(O)C(=O)C(C)=C[C@H]12` (stereo partly shown) [EBC-46, tigilanol tiglate] here?
Answer: isoform-selective binding

Question: What about the remission ([2]; after a second dose) of the same compound?
Answer: 88%

Question: What about the complete response ([2]; after a single intratumoral injection) of the same compound?
Answer: 75%

Question: And the “translocation of PKC-βI-GFP” value [3]?
Answer: modest translocation; also recorded: robust translocation

Question: What about the “stability in neutral aqueous media” value [4] of the same compound?
Answer: spontaneously undergo Payne rearrangement to EBC-211

Question: And the PKC binding affinity [5]?
Answer: potent PKC affinity

Question: With `CC(=O)O[C@@H]1[C@@H](C)[C@@]2(O)C([C@@H]3C(C)(C)[C@]13OC(C)=O)[C@@H]1O[C@]1(CO)[C@@H](O)[C@]1(O)C(=O)C(C)=C[C@H]12` (stereo partly shown) [SUW401] as the compound, how does the PKC binding affinity [5] read?
Answer: very low PKC binding affinity

Question: Which “antiviral activity against chikungunya virus” value [6] does the source give for trigowiin A here?
Answer: moderate antiviral activity

Question: What about the PKC δ binding value (constant type not stated) [7] of the same compound?
Answer: 20.3 nM

Question: And the PKC β binding affinity [8]?
Answer: 19.3 nM
